Where two headings read alike, the source gives them in different places.
Key:
[1] = system: tobacco mosaic virus (TMV); experiment: Anti-TMV in vivo inactivation; parameters: species or system tobacco mosaic virus (host Nicotiana tabacum L.cv.Xanthi NN)
Phytophthora capsici = experiment: Fungicidal (bactericidal) activity in vitro, PDA colony diameter; assay type: cell-based; settings: 50 mg/kg
mosquito larvae = experiment: whole plant or invertebrate; settings: 24 h
Summary of the method: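 Early fourth-instar Culex pipiens pallens larvae from an indoor colony, 10 per beaker, exposed to test compound at 5 ppm in water, diluted from a 1000 ppm acetone mother solution. Blank: water containing 0.5 mL test solvent.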

potato late blight = experiment: microbe, parasite or virus in culture; assay type: cell-based
Rhizoctonia cereali = experiment: Fungicidal (bactericidal) activity in vitro, PDA colony diameter; assay type: cell-based; settings: 50 mg/kg
[2] = system: tobacco mosaic virus (TMV); experiment: Anti-TMV in vivo therapeutic effect; parameters: species or system tobacco mosaic virus (host Nicotiana tabacum L.cv.Xanthi NN)
Sclerotinia scleotiorum = experiment: Fungicidal (bactericidal) activity in vitro, PDA colony diameter; assay type: cell-based; settings: 50 mg/kg
Fusarium fujikuroi = experiment: as above; assay type: cell-based
Fusarium graminearumt = experiment: microbe, parasite or virus in culture; assay type: cell-based; settings: for Bactericidal activity (%) Fusarium graminearumt: 50 mg/kg
[3] = system: tobacco mosaic virus (TMV); experiment: Anti-TMV in vivo protective effect; parameters: species or system tobacco mosaic virus (host Nicotiana tabacum L.cv.Xanthi NN)
Botrytis cinerea = experiment: Fungicidal (bactericidal) activity in vitro, PDA colony diameter; assay type: cell-based; settings: 50 mg/kg
Cercospora arachidicola = experiment: as above; assay type: cell-based; settings: 50 mg/kg
armyworms = assay type: in vivo; settings: concentration 600 mg/kg
[4] = system: tobacco mosaic virus (TMV); experiment: Anti-TMV in vitro effect (half-leaf soaking); assay type: cell-based, tobacco mosaic virus (host Nicotiana tabacum L.cv.Xanthi NN)
[5] = system: armyworms, cotton bollworms and corn borers; experiment: Insecticidal activity, overall statements on Table 3; assay type: in vivo; settings: Table 3, 600 mg/kg
Macrophoma kawatsukai = experiment: Fungicidal (bactericidal) activity in vitro, PDA colony diameter; assay type: cell-based; settings: 50 mg/kg
Alternaria solani = experiment: as above; assay type: cell-based; settings: 50 mg/kg
cotton bollworms = experiment: whole plant or invertebrate; settings: for Cotton bollworm Mortality (%): concentration 600 mg/kg
Protocol: Experimental method of cotton bollworms: feed and drug mixing method: measure 3 mL of prepared solution and add it to about 27 g of newly prepared feed, thereby obtaining needed concentration through dilution by 10 times.

corn borers [6] = settings: concentration 600 mg/kg
Bipolaria maydis = experiment: organism not typed; assay type: cell-based; settings: for Bactericidal activity (%) Bipolaria maydis: 50 mg/kg
Rhizoctonia solani = experiment: Fungicidal (bactericidal) activity in vitro, PDA colony diameter; assay type: cell-based; settings: 50 mg/kg
cucumber fusarium wilt = experiment: as above; assay type: cell-based; settings: 50 mg/kg
[7] = system: Colletotrichum orbiculare; experiment: as above; assay type: cell-based; settings: 50 mg/kg
corn borers [8] = experiment: whole plant or invertebrate; settings: read-out: Corn borer Mortality (%)
[9] = system: tobacco mosaic virus (TMV); experiment: Anti-TMV activity, overall statements on Table 1; assay type: in vivo, tobacco mosaic virus (host Nicotiana tabacum L.cv.Xanthi NN); settings: 100 μg/mL versus ningnanmycin at 100 μg/mL

SMILES: C[C@@H]1N[C@H](C(=O)NCC2CCCO2)Cc2c1[nH]c1ccccc21 (stereo partly drawn) [Ib-20, (1S, 3S)—N-((tetrahydrofuran-2)-methyl)-1-methyl-2,3,4,9-tetrahydro-pyridino [3,4-b] indol-3-formamide]
- Relative inhibition rate (%) In vivo inactivation ([1]; treatment dose 100 μg/mL): 9.8%
- Relative inhibition rate (%) In vivo inactivation ([1]; treatment dose 500 μg/mL): 39.1%
- Bactericidal activity (%) Phytophthora capsici (Phytophthora capsici): 18.4%
- Mosquito larvae Mortality (%) (mosquito larvae; concentration 5 mg/kg): 40%
- Mosquito larvae Mortality (%) (mosquito larvae; concentration 10 mg/kg): 100%
- Bactericidal activity (%) potato late blight (potato late blight): 20.0%
- Bactericidal activity (%) Rhizoctonia cereali (Rhizoctonia cereali): 47.1%
- Relative inhibition rate (%) In vivo therapy ([2]; treatment dose 100 μg/mL): 0%
- Relative inhibition rate (%) In vivo therapy ([2]; treatment dose 500 μg/mL): 34.2%
- Bactericidal activity (%) Sclerotinia scleotiorum (Sclerotinia scleotiorum): 0.0%
- Bactericidal activity (%) Fusarium fujikuroi (Fusarium fujikuroi; 50 mg/kg): 21.4%
- Bactericidal activity (%) Fusarium graminearumt (Fusarium graminearumt): 24.1%
- Relative inhibition rate (%) In vivo protection ([3]; treatment dose 100 μg/mL): 0%
- Relative inhibition rate (%) In vivo protection ([3]; treatment dose 500 μg/mL): 29.6%
- Bactericidal activity (%) Botrytis cinerea (Botrytis cinerea): 36.4%
- Bactericidal activity (%) Cercospora arachidicola (Cercospora arachidicola): 23.5%
- Armyworm Mortality (%) (armyworms): 65%
- Relative inhibition rate (%) In vitro activity ([4]; treatment dose 100 μg/mL): 0%
- Relative inhibition rate (%) In vitro activity ([4]; treatment dose 500 μg/mL): 37.5%
- activity against armyworms, cotton bollworms and corn borers (in words) [5]: broad-spectrum activity
- Bactericidal activity (%) Macrophoma kawatsukai (Macrophoma kawatsukai): 27.8%
- Bactericidal activity (%) Alternaria solani (Alternaria solani): 20.0%
- Cotton bollworm Mortality (%) (cotton bollworms): 30%
- Corn borer Mortality (%) (corn borers [6]): 60%
- Bactericidal activity (%) Bipolaria maydis (Bipolaria maydis): 16.0%
- Bactericidal activity (%) Rhizoctonia solani (Rhizoctonia solani): 13.2%
- Bactericidal activity (%) Cucumber fusarium wilt (cucumber fusarium wilt): 15.4%
- Bactericidal activity (%) Colletotrichum orbiculare [7]: 18.5%

SMILES: COc1ccc(C=NNC(=O)[C@@H]2Cc3c([nH]c4ccccc34)[C@H](C)N2)cc1OC [Ic-11, (1S, 3S)—N′-(3,4-dimethoxybenzylidene)-1-methyl-2,3,4,9-tetrahydropyridino [3,4-b] indol-3-formylhydrazine]
- Relative inhibition rate (%) In vivo inactivation ([1]; treatment dose 100 μg/mL): 20.3%
- Relative inhibition rate (%) In vivo inactivation ([1]; treatment dose 500 μg/mL): 47.1%
- Bactericidal activity (%) Phytophthora capsici (Phytophthora capsici): 84.8%
- Mosquito larvae Mortality (%) (mosquito larvae; concentration 5 mg/kg): 40%
- Mosquito larvae Mortality (%) (mosquito larvae; concentration 10 mg/kg): 100%
- Bactericidal activity (%) potato late blight (potato late blight): 30.4%
- Bactericidal activity (%) Rhizoctonia cereali (Rhizoctonia cereali): 89.2%
- Relative inhibition rate (%) In vivo therapy ([2]; treatment dose 100 μg/mL): 16.2%
- Relative inhibition rate (%) In vivo therapy ([2]; treatment dose 500 μg/mL): 40.5%
- Bactericidal activity (%) Sclerotinia scleotiorum (Sclerotinia scleotiorum): 21.2%
- Bactericidal activity (%) Fusarium fujikuroi (Fusarium fujikuroi): 47.1%
- Bactericidal activity (%) Fusarium graminearumt (Fusarium graminearumt): 30.8%
- Relative inhibition rate (%) In vivo protection ([3]; treatment dose 100 μg/mL): 11%
- Relative inhibition rate (%) In vivo protection ([3]; treatment dose 500 μg/mL): 42.3%
- Bactericidal activity (%) Botrytis cinerea (Botrytis cinerea): 66.7%
- Bactericidal activity (%) Cercospora arachidicola (Cercospora arachidicola): 45.5%
- Armyworm Mortality (%) (armyworms): 65%
- Relative inhibition rate (%) In vitro activity ([4]; treatment dose 100 μg/mL): 7.8%
- Relative inhibition rate (%) In vitro activity ([4]; treatment dose 500 μg/mL): 37.2%
- activity against armyworms, cotton bollworms and corn borers (in words) [5]: broad-spectrum activity
- Bactericidal activity (%) Macrophoma kawatsukai (Macrophoma kawatsukai): 66.7%
- Bactericidal activity (%) Alternaria solani (Alternaria solani): 52.4%
- Cotton bollworm Mortality (%) (cotton bollworms): 40%
- Corn borer Mortality (%) (corn borers [6]): 55%
- Bactericidal activity (%) Bipolaria maydis (Bipolaria maydis): 52.0%
- Bactericidal activity (%) Rhizoctonia solani (Rhizoctonia solani): 44.4%
- Bactericidal activity (%) Cucumber fusarium wilt (cucumber fusarium wilt): 22.7%
- Bactericidal activity (%) Colletotrichum orbiculare [7]: 72.0%

SMILES: C[C@@H]1N[C@H](C(=O)NNC(=O)c2cccc3nnsc23)Cc2c1[nH]c1ccccc21 [Id-1, N′-((1S, 3S)-1-methyl-2,3,4,9-tetrahydropyridino [3,4-b]indol-3-tricarboxylate)benzo [d] [1,2, 3] thiadiazole-7-formylhydrazine]
- inhibition at 100 µg/mL ([1]; Tobacco mosaic virus, treatment dose 100 μg/mL, read-out: Relative inhibition rate (%) In vivo inactivation): 16.2%
- inhibition at 500 µg/mL ([1]; Tobacco mosaic virus, treatment dose 500 μg/mL, read-out: Relative inhibition rate (%) In vivo inactivation): 44.1%
- inhibition of growth at 50 mg/kg (Phytophthora capsici; Phytophthora capsici, 96 h): 27.3%
- mortality at 10 mg/kg (mosquito larvae; Culex pipiens, read-out: Mosquito larvae Mortality (%)): 75%
- inhibition of growth at 50 mg/kg (potato late blight; Phytophthora infestans, 96 h, read-out: Bactericidal activity (%) potato late blight): 17.4%
- inhibition of growth at 50 mg/kg (Rhizoctonia cereali; Rhizoctonia, 96 h): 43.2%
- inhibition at 100 µg/mL ([2]; Tobacco mosaic virus, treatment dose 100 μg/mL, read-out: Relative inhibition rate (%) In vivo therapy): 26.8%
- inhibition at 500 µg/mL ([2]; Tobacco mosaic virus, treatment dose 500 μg/mL, read-out: Relative inhibition rate (%) In vivo therapy): 54.5%
- mortality at 600 mg/kg (corn borers [8]): 35%
- inhibition of growth at 50 mg/kg (Sclerotinia scleotiorum; Sclerotinia, 96 h): 26.9%
- inhibition of growth at 50 mg/kg (Fusarium fujikuroi; Fusarium fujikuroi, 96 h, 50 mg/kg): 47.1%
- inhibition of growth at 50 mg/kg (Fusarium graminearumt; Fusarium, 96 h, read-out: Bactericidal activity (%) Fusarium graminearumt): 61.5%
- inhibition at 100 µg/mL ([3]; Tobacco mosaic virus, treatment dose 100 μg/mL, read-out: Relative inhibition rate (%) In vivo protection): 29.9%
- inhibition at 500 µg/mL ([3]; Tobacco mosaic virus, treatment dose 500 μg/mL, read-out: Relative inhibition rate (%) In vivo protection): 58.3%
- inhibition of growth at 50 mg/kg (Botrytis cinerea; Botrytis cinerea, 96 h): 44.4%
- inhibition of growth at 50 mg/kg (Cercospora arachidicola; Mycosphaerella arachidis, 96 h): 18.2%
- anti-TMV activity compared with ningnanmycin [9]: equivalent to the activity of commercial variety ningnanmycin
- Armyworm Mortality (%) (armyworms): 35%
- inhibition at 100 µg/mL ([4]; Tobacco mosaic virus, treatment dose 100 μg/mL, read-out: Relative inhibition rate (%) In vitro activity): 22.6%
- inhibition at 500 µg/mL ([4]; Tobacco mosaic virus, treatment dose 500 μg/mL, read-out: Relative inhibition rate (%) In vitro activity): 52.1%
- inhibition at 50 mg/kg (Macrophoma kawatsukai): 51.5%
- inhibition of growth at 50 mg/kg (Alternaria solani; Alternaria solani, 96 h): 19%
- mortality at 600 mg/kg (cotton bollworms; Helicoverpa armigera, in Gossypium hirsutum, read-out: Cotton bollworm Mortality (%)): 15%
- inhibition at 50 mg/kg (Bipolaria maydis; read-out: Bactericidal activity (%) Bipolaria maydis): 36%
- inhibition of growth at 50 mg/kg (Rhizoctonia solani; Rhizoctonia solani, 96 h): 1.4%
- inhibition of growth at 50 mg/kg (cucumber fusarium wilt; Fusarium, 96 h): 13.6%
- inhibition of growth at 50 mg/kg ([7]; Colletotrichum orbiculare, 96 h): 32%
